Experimental data taken from patent publication US8710089B2, “Triazole derivatives as ghrelin analogue ligands of growth hormone secretagogue receptors” (Zentaris GmbH, priority 2005, dated 2014).

What follows are molecules tested against T1, human GHS-R 1a (Homo sapiens, UniProt Q92847) (assay: GHS-R 1a receptor-ligand binding assay (membrane preparations from transfected LLC PK-1 cells)). Conditions: displacement of 125I-His9-ghrelin (60 pM); membranes of LLC PK-1 cells transfected with human GHS-R 1a; mean of at least two independent experiments in triplicates.
T1 construct: expressed in transfected cells; host or cells: LLC PK-1 porcine renal epithelial cells (ECACC No. 86121112), isolated plasma membranes
T1 sequence (Q92847 whole entry): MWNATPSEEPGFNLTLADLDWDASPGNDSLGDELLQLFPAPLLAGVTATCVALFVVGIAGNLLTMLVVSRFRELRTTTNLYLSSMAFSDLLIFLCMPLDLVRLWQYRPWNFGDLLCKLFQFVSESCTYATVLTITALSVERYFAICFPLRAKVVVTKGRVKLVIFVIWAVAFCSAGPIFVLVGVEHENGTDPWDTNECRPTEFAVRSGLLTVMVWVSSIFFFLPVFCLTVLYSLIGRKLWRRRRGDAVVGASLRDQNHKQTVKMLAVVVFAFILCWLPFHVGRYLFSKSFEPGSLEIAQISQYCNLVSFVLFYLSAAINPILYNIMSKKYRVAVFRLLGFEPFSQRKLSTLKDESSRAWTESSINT
Procedure: (J. Med. […] Med. Chem. 2003, 46: 1191-1203), were incubated in homogenization buffer HB [50 mM Tris (pH 7.3), 5 mM MgCl2, 2.5 mM EDTA, and 30 μg/mL bacitracin (Sigma)] for 60 min at 25° C. (steady-state conditions) with 60 pM ^125I-[…]-ghrelin (Amersham) in the presence or absence of competing compounds (compounds of the invention). […] Nonspecific binding was defined using an excess (10^-6 M) of ghrelin. The binding reaction was stopped by addition of 4 mL of ice-cold HB followed by rapid filtration over Whatman GP/C filters presoaked with 0.5% polyethyleneimine to prevent excessive binding of radioligand to the filters. […] IC50 values given are the mean of at least two independent experiments performed in triplicates.

Point of comparison: `CC(C)(C)Sc1nnc([C@@H](Cc2c[nH]c3ccccc23)NC(=O)C(C)(C)N)n1Cc1ccco1` [Example 39 from WO 00/54729 A2, (R)—N-(1-(5-(tert-butylthio)-4-(furan-2-ylmethyl)-4H-1,2,4-triazol-3-yl)-2-(1H-indol-3-yl)ethyl)-2-amino-2-methylpropanamide, reference compound], IC50 ~5000 nM. Against it:
- COc1ccc(Cn2c(CCc3c[nH]c4ccccc34)nnc2[C@@H](Cc2c[nH]c3ccccc23)NS(=O)(=O)c2ccc(C)cc2)c(OC)c1 [compound 187, (R)-1-(5-(2-(1H-indol-3-yl)ethyl)-4-(2,4-dimethoxybenzyl)-4H-1,2,4-triazol-3-yl)-2-(1H-indol-3-yl)-N-tosylethanamine] — 76-fold lower, 66 nM
- CC(C)(N)C(=O)N[C@H](Cc1c[nH]c2ccccc12)c1nnc(CCc2c[nH]c3ccccc23)n1Cc1ccc(F)cc1 [compound 29, (R)—N-(1-(5-(2-(1H-indol-3-yl)ethyl)-4-(4-fluorobenzyl)-4H-1,2,4-triazol-3-yl)-2-(1H-indol-3-yl)ethyl)-2-amino-2-methylpropanamide] — 76-fold lower, 66 nM
- CC(C)(N)C(=O)N[C@H](COCc1ccccc1)c1nnnn1Cc1ccccc1 [Example from page 175, WO 00/54729 A2, (S)—N-(1-(1-benzyl-tetrazol-5-yl)-2-(benzyloxy)ethyl)-2-amino-2-methylpropanamide, reference compound] — 5-fold higher, ~25000 nM
- COc1ccc(Cn2c(CCc3ccccc3)nnc2[C@@H](Cc2c[nH]c3ccccc23)NC(=O)CCN)cc1 [compound 56, (R)—N-(1-(4-(4-methoxybenzyl)-5-phenethyl-4H-1,2,4-triazol-3-yl)-2-(1H-indol-3-yl)ethyl)-3-aminopropanamide] — 85-fold lower, 59 nM
- CC(C)(N)C(=O)N[C@H](Cc1c[nH]c2ccccc12)c1nnc(CCCc2c[nH]c3ccccc23)n1Cc1ccc(Br)cc1 [compound 14, (R)—N-(1-(5-(3-(1H-indol-3-yl)propyl)-4-(4-bromobenzyl)-4H-1,2,4-triazol-3-yl)-2-(1H-indol-3-yl)ethyl)-2-amino-2-methylpropanamide] — 33-fold lower, 150 nM
- COc1ccc(Cn2c(CCc3c[nH]c4ccccc34)nnc2[C@@H](Cc2c[nH]c3ccccc23)NC(=O)Cc2ccncc2)cc1 [compound 136, N—((R)-1-(5-(2-(1H-indol-3-yl)ethyl)-4-(4-methoxybenzyl)-4H-1,2,4-triazol-3-yl)-2-(1H-indol-3-yl)ethyl)-2-(pyridin-4-yl)acetamide] — 47-fold lower, 106 nM
- COc1cccc(Cn2c(Cc3ccccc3)nnc2[C@@H](Cc2c[nH]c3ccccc23)NC(=O)C(C)(C)N)c1 [compound 7, (R)—N-(1-(4-(3-methoxybenzyl)-5-benzyl-4H-1,2,4-triazol-3-yl)-2-(1H-indol-3-yl)ethyl)-2-amino-2-methylpropanamide] — 42-fold lower, 120 nM
- CC(C)(N)C(=O)N[C@H](Cc1c[nH]c2ccccc12)c1nnc(CCCc2c[nH]c3ccccc23)n1CCc1ccccc1 [compound 3, (R)—N-(1-(5-(3-(1H-indol-3-yl)propyl)-4-phenethyl-4H-1,2,4-triazol-3-yl)-2-(1H-indol-3-yl)ethyl)-2-amino-2-methylpropanamide] — 360-fold lower, 14 nM
- O=C(N[C@H](Cc1c[nH]c2ccccc12)c1nnc(CCc2c[nH]c3ccccc23)n1Cc1ccccc1)C1CCCNC1 (mixture of isomers) [compound 55, (R)—N-(1-(5-(2-(1H-indol-3-yl)ethyl)-4-benzyl-4H-1,2,4-triazol-3-yl)-2-(1H-indol-3-yl)ethyl)piperidine-3-carboxamide] — 450-fold lower, 11 nM
- COc1ccc(Cn2c(CCc3ccccc3)nnc2[C@@H](Cc2c[nH]c3ccccc23)NC(=O)[C@@H]2CCCNC2)cc1 [compound 42, (R)—N—((R)-1-(4-(4-methoxybenzyl)-5-phenethyl-4H-1,2,4-triazol-3-yl)-2-(1H-indol-3-yl)ethyl)piperidine-3-carboxamide] — 710-fold lower, 7 nM
- CC(C)(N)C(=O)N[C@H](Cc1c[nH]c2ccccc12)c1nnc(CCc2c[nH]c3ccccc23)n1Cc1ccc(Br)cc1 [compound 92, (R)—N-(1-(5-(2-(1H-indol-3-yl)ethyl)-4-(4-bromobenzyl)-4H-1,2,4-triazol-3-yl)-2-(1H-indol-3-yl)ethyl)-2-amino-2-methylpropanamide] — 25-fold lower, 200 nM
- CCCCCCn1c(CCc2c[nH]c3ccccc23)nnc1[C@@H](Cc1c[nH]c2ccccc12)NC(=O)C(C)(C)N [compound 15, (R)—N-(1-(5-(2-(1H-indol-3-yl)ethyl)-4-hexyl-4H-1,2,4-triazol-3-yl)-2-(1H-indol-3-yl)ethyl)-2-amino-2-methylpropanamide] — 42-fold lower, 120 nM
- CCc1ccc(Cn2c(CCc3ccccc3)nnc2[C@@H](Cc2c[nH]c3ccccc23)NC(=O)C(C)(C)N)cc1 [compound 43, (R)—N-(1-(4-(4-ethylbenzyl)-5-phenethyl-4H-1,2,4-triazol-3-yl)-2-(1H-indol-3-yl)ethyl)-2-amino-2-methylpropanamide] — 110-fold lower, 44 nM
- COc1ccc(Cn2c(CCc3c[nH]c4ccccc34)nnc2[C@@H](Cc2c[nH]c3ccccc23)NC(=O)Cc2ccccn2)c(OC)c1 [compound 61, (R)—N-(1-(5-(2-(1H-indol-3-yl)ethyl)-4-(2,4-dimethoxybenzyl)-4H-1,2,4-triazol-3-yl)-2-(1H-indol-3-yl)ethyl)-2-(pyridin-2-yl)acetamide] — 150-fold lower, 34 nM
- COc1ccccc1Cn1c(CCc2ccccc2)nnc1[C@@H](Cc1c[nH]c2ccccc12)NC(=O)C(C)(C)N [compound 26, (R)—N-(1-(4-(2-methoxybenzyl)-5-phenethyl-4H-1,2,4-triazol-3-yl)-2-(1H-indol-3-yl)ethyl)-2-amino-2-methylpropanamide] — 89-fold lower, 56 nM
- O=C(N[C@H](Cc1c[nH]c2ccccc12)c1nnc(CCc2ccccc2)n1Cc1ccco1)c1ccccn1 [compound 182, N—((R)-1-(4-((furan-2-yl)methyl)-5-phenethyl-4H-1,2,4-triazol-3-yl)-2-(1H-indol-3-yl)ethyl)picolinamide] — 62-fold lower, 81 nM
- COc1ccc(Cn2c(CCc3c[nH]c4ccccc34)nnc2[C@@H](Cc2c[nH]c3ccccc23)NC(=O)[C@H]2CCCNC2)cc1 [compound 87, (S)—N—((R)-1-(5-(2-(1H-indol-3-yl)ethyl)-4-(4-methoxybenzyl)-4H-1,2,4-triazol-3-yl)-2-(1H-indol-3-yl)ethyl)piperidine-3-carboxamide] — 500-fold lower, 10 nM
- COc1ccc(Cn2c(CCc3c[nH]c4ccccc34)nnc2[C@@H](Cc2c[nH]c3ccccc23)NC(=O)CN)cc1 [compound 152, N—((R)-1-(5-(2-(1H-indol-3-yl)ethyl)-4-(4-methoxybenzyl)-4H-1,2,4-triazol-3-yl)-2-(1H-indol-3-yl)ethyl)-2-aminoacetamide] — 36-fold lower, 138 nM
- O=C(N[C@H](Cc1c[nH]c2ccccc12)c1nnc(Cc2ccccc2)n1Cc1ccccn1)c1ccccn1 [compound 164, N—((R)-1-(5-benzyl-4-((pyridin-2-yl)methyl)-4H-1,2,4-triazol-3-yl)-2-(1H-indol-3-yl)ethyl)picolinamide] — 24-fold lower, 207 nM
- O=C(N[C@H](Cc1c[nH]c2ccccc12)c1nnc(CCc2c[nH]c3ccccc23)n1-c1ccccc1)c1ccccn1 [compound 157, N—((R)-1-(5-(2-(1H-indol-3-yl)ethyl)-4-phenyl-4H-1,2,4-triazol-3-yl)-2-(1H-indol-3-yl)ethyl)picolinamide] — 31-fold lower, 160 nM
- COc1ccccc1Cn1c(CCc2c[nH]c3ccccc23)nnc1[C@@H](Cc1c[nH]c2ccccc12)NC(=O)C(C)(C)N [compound 25] — 52-fold lower, 96 nM
- O=C(N[C@H](Cc1c[nH]c2ccccc12)c1nnc(CCc2c[nH]c3ccccc23)n1Cc1ccccc1)C1CCNCC1 [compound 54, (R)—N-(1-(5-(2-(1H-indol-3-yl)ethyl)-4-benzyl-4H-1,2,4-triazol-3-yl)-2-(1H-indol-3-yl)ethyl)piperidine-4-carboxamide] — 140-fold lower, 35 nM
- COc1ccc(Cn2c(CCc3ccccc3)nnc2[C@@H](Cc2c[nH]c3ccccc23)NC(=O)C2CCOCC2)cc1 [compound 184, N—((R)-1-(4-(4-methoxybenzyl)-5-phenethyl-4H-1,2,4-triazol-3-yl)-2-(1H-indol-3-yl)ethyl)-tetrahydro-2H-pyran-4-carboxamide] — 850-fold lower, 5.9 nM
- CC(C)(N)C(=O)N[C@H](Cc1c[nH]c2ccccc12)c1nnc(CCc2c[nH]c3ccccc23)n1CCc1ccccc1 [compound 2, (R)—N-(1-(5-(2-(1H-indol-3-yl)ethyl)-4-phenethyl-4H-1,2,4-triazol-3-yl)-2-(1H-indol-3-yl)ethyl)-2-amino-2-methylpropanamide] — 62-fold lower, 81 nM
- CCc1ccc(-n2c(CCc3c[nH]c4ccccc34)nnc2[C@@H](Cc2c[nH]c3ccccc23)NC(=O)c2ccccn2)cc1 [compound 147, N—((R)-1-(5-(2-(1H-indol-3-yl)ethyl)-4-(4-ethylphenyl)-4H-1,2,4-triazol-3-yl)-2-(1H-indol-3-yl)ethyl)picolinamide] — 100-fold lower, 49 nM
- COc1ccc(Cn2c(CCc3ccccc3)nnc2[C@@H](Cc2c[nH]c3ccccc23)NC(=O)[C@H]2CCCNC2)cc1 [compound 41, (S)—N—((R)-1-(4-(4-methoxybenzyl)-5-phenethyl-4H-1,2,4-triazol-3-yl)-2-(1H-indol-3-yl)ethyl)piperidine-3-carboxamide] — 310-fold lower, 16 nM
- COc1ccc(Cn2c(CCc3ccccc3)nnc2[C@@H](Cc2c[nH]c3ccccc23)NC(=O)[C@@H]2CCCN2)c(OC)c1 [compound 68, (S)—N—((R)-1-(4-(2,4-dimethoxybenzyl)-5-phenethyl-4H-1,2,4-triazol-3-yl)-2-(1H-indol-3-yl)ethyl)pyrrolidine-2-carboxamide] — 110-fold lower, 44 nM
